Assays:
[1] = target: T1, AuroraA-TPX2 (Homo sapiens, UniProt O14965); experiment: AuroraA-TPX2 Homogeneous Time Resolved Fluorescent (HTRF) kinase assay; type: biochemical; settings: average; read-out: AurA_IC50_IP (uM Avg)
T1 construct: 20 μL of AuroraA-TPX2 KD GST for a final volume of about 41 μL; GST
T1 sequence (O14965 133-383 limits assumed): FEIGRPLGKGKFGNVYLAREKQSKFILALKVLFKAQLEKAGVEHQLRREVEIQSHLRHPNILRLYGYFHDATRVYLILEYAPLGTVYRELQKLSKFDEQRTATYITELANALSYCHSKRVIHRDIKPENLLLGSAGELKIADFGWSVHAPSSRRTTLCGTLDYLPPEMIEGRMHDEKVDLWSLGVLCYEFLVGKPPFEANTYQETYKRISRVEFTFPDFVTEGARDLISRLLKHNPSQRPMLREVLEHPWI
T1 sequence (Q9ULW0 1-43 partner limits assumed): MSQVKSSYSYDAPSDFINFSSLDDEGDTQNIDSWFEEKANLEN
Summary of the method: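 HTRF read-out (Eu 615 nm to APC 655 nm) of phosphorylated biotin-PLK, detected with 0.02 nM europium anti-phosphoPLK antibody and 0.0005 mg/mL SA-APC after overnight equilibration.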

[2] = target: T2, AuroraB (Homo sapiens, UniProt Q96GD4); experiment: AuroraB Homogeneous Time Resolved Fluorescent (HTRF) kinase assay; type: biochemical; settings: average; read-out: AurB_IC50_IP (uM Avg)
T2 construct: 20 μL of AuroraB FL H is for a final volume of 41 μL; His
Summary of the method: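 Read-out is time-resolved FRET between europium anti-phospho-H3 antibody and streptavidin-APC, added in EDTA buffer to stop the reaction and equilibrated about 60 min (ex 320, em 615 and 655 nm). Preceding reaction: ~90 min, full-length enzyme, ATP, 0.1 μM biotin-Histone H3 substrate, Mg/Mn HEPES buffer pH 7.5.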

T2 sequence (Q96GD4 whole entry): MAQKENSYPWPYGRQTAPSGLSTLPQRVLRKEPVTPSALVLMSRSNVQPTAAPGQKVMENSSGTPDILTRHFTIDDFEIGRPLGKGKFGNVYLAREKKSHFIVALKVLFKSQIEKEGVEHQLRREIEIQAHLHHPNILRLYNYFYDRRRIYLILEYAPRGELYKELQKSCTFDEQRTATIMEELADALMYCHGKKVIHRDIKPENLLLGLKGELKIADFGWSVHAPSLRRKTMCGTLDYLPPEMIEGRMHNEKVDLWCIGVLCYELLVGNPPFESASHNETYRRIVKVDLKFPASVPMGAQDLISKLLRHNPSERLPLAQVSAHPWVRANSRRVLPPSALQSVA

Row | Compound | IC50 [1] [µM] | IC50 [2] [µM]
1 | COc1ccc2c(Oc3ccc(Nc4nnc(-c5cccc(OC)n5)c5ccccc45)cc3)ccnc2c1 [compound 100, 4-(6-(methyloxy)-2-pyridinyl)-N-(4-((7-(methyloxy)-4-quinolinyl)oxy)phenyl)-1-phthalazinamine] | 0.038 | 0.006
2 | COc1cc2nccc(Sc3ccc(Nc4nnc(-c5ccccc5)c5ccccc45)cc3)c2cc1OC [compound 104, N-(4-((6,7-bis(methyloxy)-4-quinolinyl)thio)phenyl)-4-phenyl-1-phthalazinamine] | 0.036 | 0.042
3 | N#Cc1ccc2c(Oc3ccc(Nc4nnc(-c5ccccc5)c5ccccc45)cc3)ccnc2c1 [compound 105, 4-((4-((4-phenyl-1-phthalazinyl)amino)phenyl)oxy)-7-quinolinecarbonitrile] | 0.039 | 0.003
4 | COc1cc2nccc(Oc3ccc(Nc4nnc(N5CCN(C)CC5)c5ccccc45)cc3)c2cn1 [compound 109, N-(4-((7-(methyloxy)-1,6-naphthyridin-4-yl)oxy)phenyl)-4-(4-methyl-1-piperazinyl)-1-phthalazinamine] | 0.06 | 0.001
5 | COc1cc2nccc(Oc3ccc(Nc4nnc(-c5cccc(C)n5)c5ccccc45)cc3)c2cn1 [compound 110, N-(4-((7-(methyloxy)-1,6-naphthyridin-4-yl)oxy)phenyl)-4-(6-methyl-2-pyridinyl)-1-phthalazinamine] | 0.043 | 0.002
6 | COc1cnc2c(Oc3ccc(Nc4nnc(-c5cccc(C)n5)c5ccccc45)cc3)ccnc2c1 [compound 111, N-(4-((7-(methyloxy)-1,5-naphthyridin-4-yl)oxy)phenyl)-4-(6-methyl-2-pyridinyl)-1-phthalazinamine] | 0.04 | 0.005
7 | COc1cnc2c(Oc3ccc(Nc4nnc(-c5cccc(CO)n5)c5ccccc45)cc3)ccnc2c1 [compound 114, (6-(4-((4-((7-(methyloxy)-1,5-naphthyridin-4-yl)oxy)phenyl)amino)-1-phthalazinyl)-2-pyridinyl)methanol] | 0.036 | 0.005
8 | Fc1cc(Nc2nnc(-c3ccccc3)c3ccccc23)ccc1Oc1ccnc2ccccc12 [compound 115, N-(3-fluoro-4-(4-quinolinyloxy)phenyl)-4-phenyl-1-phthalazinamine] | 0.163 | 0.006
9 | COc1cnc2c(Oc3ccc(Nc4nnc(-c5cc(C)ccn5)c5ccccc45)cc3)ccnc2c1 [compound 116, N-(4-((7-(methyloxy)-1,5-naphthyridin-4-yl)oxy)phenyl)-4-(4-methyl-2-pyridinyl)-1-phthalazinamine] | 0.062 | 0.011
10 | COc1cc2nccc(Oc3ccc(Nc4nnc(-c5cc(C)ccn5)c5ccccc45)cc3)c2cc1OC [compound 117, N-(4-((6,7-bis(methyloxy)-4-quinolinyl)oxy)phenyl)-4-(4-methyl-2-pyridinyl)-1-phthalazinamine] | 0.057 | 0.043
11 | COc1ccc2c(Oc3ccc(Nc4nnc(-c5cc(C)ccn5)c5ccccc45)cc3)ccnc2c1 [compound 118, N-(4-((7-(methyloxy)-4-quinolinyl)oxy)phenyl)-4-(4-methyl-2-pyridinyl)-1-phthalazinamine] | 0.136 | 0.009
12 | COc1ccccc1-c1nnc(Nc2ccc(Oc3ccnc4cc(C#N)ccc34)cc2)c2ccccc12 [compound 119, 4-((4-((4-(2-(methyloxy)phenyl)-1-phthalazinyl)amino)phenyl)oxy)-7-quinolinecarbonitrile] | 0.175 | 0.007
13 | COc1cc2nccc(Oc3ccc(Nc4nnc(-c5cc(C)ccn5)c5ccccc45)cc3)c2cn1 [compound 121, N-(4-((7-(methyloxy)-1,6-naphthyridin-4-yl)oxy)phenyl)-4-(4-methyl-2-pyridinyl)-1-phthalazinamine] | 0.041 | 0.007
14 | COc1cc2ncnc(Oc3ccc(Nc4nnc(-c5cc(C)ccn5)c5ccccc45)cc3)c2cc1OC [compound 123, N-(4-((6,7-bis(methyloxy)-4-quinazolinyl)oxy)phenyl)-4-(4-methyl-2-pyridinyl)-1-phthalazinamine] | 0.132 | 0.015
15 | COc1cc2nccc(Nc3ccc(Nc4nnc(-c5ccccc5)c5ccccc45)cc3)c2cn1 [compound 124, N-(7-(methyloxy)-1,6-naphthyridin-4-yl)-N′-(4-phenyl-1-phthalazinyl)-1,4-benzenediamine] | 0.042 | 0.002

The remaining lines, values ahead:

Row | IC50 [1] [µM] | IC50 [2] [µM] | Compound
16 | 0.027 | 0.002 | Cc1csc(-c2nnc(Nc3ccc(Oc4ccnc5cc(C(N)=O)ccc45)cc3)c3ccccc23)n1 [compound 95, 4-((4-((4-(4-methyl-1,3-thiazol-2-yl)-1-phthalazinyl)amino)phenyl)oxy)-7-quinolinecarboxamide]
17 | 0.026 | 0.005 | COc1cc2nccc(Oc3ccc(Nc4nnc(-c5ccccc5)c5ccccc45)cc3)c2cn1 [compound 96, N-(4-((7-(methyloxy)-1,6-naphthyridin-4-yl)oxy)phenyl)-4-phenyl-1-phthalazinamine]
18 | 0.01 | 0.002 | COc1cnc2c(Oc3ccc(Nc4nnc(N5CCN6CCC[C@H]6C5)c5ccccc45)cc3)ccnc2c1 [compound 97, 4-((8aS)-hexahydropyrrolo[1,2-a]pyrazin-2(1H)-yl)-N-(4-((7-(methyloxy)-1,5-naphthyridin-4-yl)oxy)phenyl)-1-phthalazinamine]
19 | 0.016 | 0.007 | COc1cc2ncnc(Oc3ccc(Nc4nnc(-c5ccccc5)c5ccccc45)cc3)c2cc1OC [compound 98, N-(4-((6,7-bis(methyloxy)-4-quinazolinyl)oxy)phenyl)-4-phenyl-1-phthalazinamine]
20 | 0.01 | 0.002 | COc1cnc2c(Oc3ccc(Nc4nnc(-c5cccc(OC)n5)c5ccccc45)cc3)ccnc2c1 [compound 99, N-(4-((7-(methyloxy)-1,5-naphthyridin-4-yl)oxy)phenyl)-4-(6-(methyloxy)-2-pyridinyl)-1-phthalazinamine]
21 | 0.01 | 0.01 | COc1cccc(-c2nnc(Nc3ccc(Oc4ccnc5cc(OC)c(OC)cc45)cc3)c3ccccc23)n1 [compound 101, N-(4-((6,7-bis(methyloxy)-4-quinolinyl)oxy)phenyl)-4-(6-(methyloxy)-2-pyridinyl)-1-phthalazinamine]
22 | 0.028 | 0.003 | COc1cccc(-c2nnc(Nc3ccc(Oc4ccnc5cc(C#N)ccc45)cc3)c3ccccc23)n1 [compound 102, 4-((4-((4-(6-(methyloxy)-2-pyridinyl)-1-phthalazinyl)amino)phenyl)oxy)-7-quinolinecarbonitrile]
23 | 0.035 | 0.004 | COc1cc2nccc(Oc3ccc(Nc4nnc(-c5ccc(C)cn5)c5ccccc45)cc3)c2cn1 [compound 103, N-(4-((7-(methyloxy)-1,6-naphthyridin-4-yl)oxy)phenyl)-4-(5-methyl-2-pyridinyl)-1-phthalazinamine]
24 | 0.01 | 0.038 | COc1cc2nccc(Oc3ccc(Nc4nnc(-c5ccc(C(C)(C)C)cc5)c5ccccc45)cc3)c2cc1OC [compound 106, N-(4-((6,7-bis(methyloxy)-4-quinolinyl)oxy)phenyl)-4-(4-(1,1-dimethylethyl)phenyl)-1-phthalazinamine]
25 | 0.018 | 0.005 | COc1cnc2c(Oc3ccc(Nc4nnc(-c5ccccc5)cc4C)cc3)ccnc2c1 [compound 107, 4-methyl-N-(4-((7-(methyloxy)-1,5-naphthyridin-4-yl)oxy)phenyl)-6-phenyl-3-pyridazinamine]
26 | 0.016 | 0.004 | CCc1cc(-c2ccccc2)nnc1Nc1ccc(Oc2ccnc3cc(OC)cnc23)cc1 [compound 108, 4-ethyl-N-(4-((7-(methyloxy)-1,5-naphthyridin-4-yl)oxy)phenyl)-6-phenyl-3-pyridazinamine]
27 | 0.015 | 0.003 | COc1cc2nccc(Oc3ccc(Nc4nnc(-c5cccc(CO)n5)c5ccccc45)cc3)c2cc1OC [compound 112, (6-(4-((4-((6,7-bis(methyloxy)-4-quinolinyl)oxy)phenyl)amino)-1-phthalazinyl)-2-pyridinyl)methanol]
28 | 0.014 | 0.011 | COc1cc2nccc(Oc3ccc(Nc4nnc(-c5cccc(COC(C)=O)n5)c5ccccc45)cc3)c2cc1OC [compound 113, (6-(4-((4-((6,7-bis(methyloxy)-4-quinolinyl)oxy)phenyl)amino)-1-phthalazinyl)-2-pyridinyl)methyl acetate]
29 | 0.019 | 0.003 | COCc1cccc(-c2nnc(Nc3ccc(Oc4ccnc5cc(OC)cnc45)cc3)c3ccccc23)n1 [compound 120, 4-(6-((methyloxy)methyl)-2-pyridinyl)-N-(4-((7-(methyloxy)-1,5-naphthyridin-4-yl)oxy)phenyl)-1-phthalazinamine]
30 | 0.022 | 0.003 | Cc1ccc(-c2nnc(Nc3ccc(Oc4ccnc5cc(C#N)ccc45)cc3)c3ccccc23)nc1 [compound 122, 4-((4-((4-(5-methyl-2-pyridinyl)-1-phthalazinyl)amino)phenyl)oxy)-7-quinolinecarbonitrile]

Source: US8557816B2, “Aurora kinase modulators and method of use” (Amgen Inc., priority 2007, dated 2013)
